Series [1] is described as follows: Decomposition rate constant. In kind it is physicochemical. The conditions noted are these: 80° C.
The nature of series [2]: Solubility (15° C.). The class given is physicochemical. The settings on record: for Solubility in DMF: dimethylformamide (DMF); for solubility: water.

Molecules are shown by their SMILES.

With `C=CCNC(=O)C(C)(C)N=NC(C)(C)C(=O)NCC=C` [Compound (2), 2,2'-azobis[N-(2-propenyl)-2-methylpropionamide]], the Decomposition rate constant in series [1] was 2.80 × 10^-6 sec.^-1. Further, in series [2], the Solubility in acetone is listed as not below 10%, the “Solubility in DMF” value is not below 10%, the Solubility in methanol is given as not below 10% and the Solubility in toluene was not below 10%. Further, the solubility in series [2] was not above 10000 µg/mL.

As for `CC(C)(N=NC(C)(C)C(=O)NCc1ccc(Cl)cc1)C(=O)NCc1ccc(Cl)cc1` [Compound (3), 2,2'-azobis[N-(p-chlorobenzyl)-2-methylpropionamide]], in series [2], the Solubility in acetone is not below 10%, the “Solubility in DMF” value is given as not below 10%, the Solubility in methanol is approximately 5% and the Solubility in toluene is not above 1%. The compound also had a solubility in series [2] not above 10000 µg/mL.

On to `CC(C)(N=NC(C)(C)C(=O)NCc1cccnc1)C(=O)NCc1cccnc1` [Compound (4), 2,2'-azobis[N-[(pyridin-3-yl)methyl]-2-methylpropionamide]·2H2 O], for which, in series [2], the Solubility in acetone is given as 3%, the “Solubility in DMF” value amounted to 1.5%, the Solubility in methanol is on record as not below 10% and the solubility was not above 10000 µg/mL.

For `CC(C)(N=NC(C)(C)C(=O)NCc1ccncc1)C(=O)NCc1ccncc1` [Compound (5), 2,2'-azobis[N-[(pyridin-4-yl)methyl]-2-methylpropionamide]·2H2 O], in series [2], the Solubility in acetone is not above 1%, the “Solubility in DMF” value was determined as 3%, the Solubility in methanol is on record as approximately 9% and the solubility was not above 10000 µg/mL.

Consider `CC(C)(N=NC(C)(C)C(=O)NCC1CCNCC1)C(=O)NCC1CCNCC1` [Compound (6), 2,2'-azobis[N-[(piperidin-4-yl)methyl]2-methylpropionamide]·2HCl], for which, in series [2], the Solubility in acetone is not above 1%, the “Solubility in DMF” value was not above 1%, the Solubility in methanol is listed as not below 10% and the Solubility in toluene is reported as not above 1%. For the same compound, the solubility in series [2] was not below 100000 µg/mL.

As for `CC(C)(N=NC(C)(C)C(=O)NCCN1CCNCC1)C(=O)NCCN1CCNCC1` [Compound (7)], in series [2], the Solubility in acetone is not above 1%, the “Solubility in DMF” value came out at 1.5%, the Solubility in methanol is listed as not below 10% and the solubility was not below 100000 µg/mL.

The record behind these values is US5001228A, “Bis-alkylamide azo polymerization initiators” (Wako Pure Chemical Industries, Ltd., priority 1988, dated 1991).
